Test results as given in patent publication US8404703B2, “Medicinal compositions containing aspirin” (Daiichi Sankyo Company, Limited, priority 2000, dated 2013).

System: thrombogenesis or thrombus formation
Experiment: Inhibitory activity against thrombogenesis, modified arterio-venous shunt thrombosis model in rats
Format: in vivo, male Sprague Dawley rats
Details: oral, shunt circulation started 2 h after administration, 30 min circulation, average ±SE (n=6)
From the text: As the test animals, male Sprague Dawley rats of 7 weeks old were purchased from SLC Japan and 6 rats per group were used.
2-Acetoxy-5-(α-cyclopropylcarbonyl-2-fluorobenzyl)-4,5,6,7-tetrahydrothieno[3,2-c]pyridine was synthesized according to the method described in the Specification of Japanese Patent Application Publication No. Hei 6-41139 and was used, while aspirin was purchased from Sigma Chemical Co. and was used. Both compounds were suspended in 5% (w/v) gum arabic solution, and were diluted so as to be 1 ml/kg of administration volume and were orally administered.
The inhibitory activities of the compounds against thrombogenesis or thrombus formation were evaluated in the modified arterio-venous shunt thrombosis model in rats, which was described by Umetsu et al. [Thromb. Haemost., 39, 74-83 (1978)].
The shunt tube was prepared as follows; i.e., both sides of a medical silicon tube of 12 cm length [inner diameter: 1.5 mm, outer diameter: 2.5 mm, purchased from KANEKA Medix Co., Ltd] were connected each to a polyethylene tube of 7 cm length [inner diameter: 0.5 mm, outer diameter: 1.0 mm, purchased from Natsume Seisakusho Co., Ltd.] covered with silicon via a medical silicon tube of 0.7 cm length [inner diameter: 1.0 mm, outer diameter: 1.5 mm, KANEKA Medix Co., Ltd] as connector. A surgical suture of 10 cm length was placed in the silicon tube of 12 cm length.
The animal was anesthetized with an intraperitoneal injection of 40 mg/kg of pentobarbital sodium (purchased from Abbott Laboratories Inc.), and the jugular of one side and the carotid of the other side were exposed. The arteriovenous shunt was made by cannulation of a shunt tube filled with heparin solution [[…], purchased from Fuso Pharmaceutical Co., Ltd] into the carotid and the jugular which had been previously exposed.
The test compounds were orally administered and the blood was started to circulate into the shunt area two hours after the administration. Thirty minutes after the circulation was started, the shunt tube was removed, and the thrombus adsorbed on the surgical suture was weighed. The results in the table are expressed as the average weight ±SE (n=6).

CC(=O)Oc1ccccc1C(=O)O [Aspirin, aspirin]
Inhibition Rate (Aspirin 10 mg/kg alone): 12.3 ± 4.4%
Thrombus Weight (Aspirin 10 mg/kg alone): 46.6 ± 2.8 mg

CC(=O)Oc1cc2c(s1)CCN(C(C(=O)C1CC1)c1ccccc1F)C2 (stereo not drawn) [Compound A, 2-Acetoxy-5-(α-cyclopropylcarbonyl-2-fluorobenzyl)-4,5,6,7-tetrahydrothieno[3,2-c]pyridine]
Inhibition Rate (Compound A 0.3 mg/kg alone): 17.0 ± 4.1%
Thrombus Weight (Compound A 0.3 mg/kg alone): 43.5 ± 2.1 mg
Inhibition Rate (Compound A 0.6 mg/kg alone): 28.3 ± 4.0%
Thrombus Weight (Compound A 0.6 mg/kg alone): 37.5 ± 2.1 mg
